This is an account of results in ChEMBL document CHEMBL5518165, “M335, a novel small-molecule STING agonist activates the immune response and exerts antitumor effects” (Eur J Med Chem, 2024).

In one series the test system is Human alphaherpesvirus 1. Put plainly: Antiviral activity against HSV-1-GFP infected in human THP-1 cells assessed as reduction in proportion of infected cells pre-infected […] for 24 hrs followed by compound addition and measured after 6 hrs by flow cytometry analysis. It is filed as functional, organism-based. The settings on record: dose 10-30 µM. Background: In flow cytometry, cells or beads pass a laser one at a time.

The test system of a further series is MC-38. The experiment in a line: Antitumor activity against mouse MC38 cells allografted in C57/BL6 mouse assessed as increase in CD8+ T cell numbers in spleen at 300 ug, IT administered every 2 days by immunohistochemical staining based analysis. It is filed as functional. To be noted: dose 300.0 µg.
In series [1] the target is Stimulator of interferon genes protein (Homo sapiens) (UniProt Q86WV6). The experiment in a line: Agonist activity at STING in human THP-1 cells assessed as upregulation of IL-6/JAK/STAT3 signaling pathway by GSEA. It is filed as cell-based. The settings on record: filed as agonist.
A short description of series [2]: Toxicity in […] mouse allografted with mouse CT26 cells assessed as change in body weight at 300 ug, IT administered every 2 days. It is filed as cell-based. The settings on record: in vivo, other, 48 h, dose 300 µg.
Series [3] concerns the target Stimulator of interferon genes protein (Homo sapiens) (UniProt Q86WV6). The experiment in a line: Agonist activity at STING in human THP-1 cells assessed as increase in IFNB mRNA level at 20 uM measured for 4 hrs by qPCR analysis. To be noted: filed as agonist. It is filed as cell-based. A general note: Real-time PCR tracks product formation cycle by cycle.
The next series has as its system THP-1. Put plainly: Upregulation of ISG15 mRNA level in STING-knockout human THP-1 cells at 20 uM measured for 4 hrs by qPCR analysis. It is filed as functional, cell-based.
The nature of series [4]: Toxicity in […] mouse allografted with mouse CT26 cells assessed as change in body weight at 5 to 20 mg/kg, ip administered every 2 days. It is filed as organism-based. The settings on record: in vivo, 48 h, dose 5-20 mg/kg.
Series [5] concerns the target T1, Stimulator of interferon genes protein (Mus musculus) (UniProt Q3TBT3).
T1 sequence (whole entry): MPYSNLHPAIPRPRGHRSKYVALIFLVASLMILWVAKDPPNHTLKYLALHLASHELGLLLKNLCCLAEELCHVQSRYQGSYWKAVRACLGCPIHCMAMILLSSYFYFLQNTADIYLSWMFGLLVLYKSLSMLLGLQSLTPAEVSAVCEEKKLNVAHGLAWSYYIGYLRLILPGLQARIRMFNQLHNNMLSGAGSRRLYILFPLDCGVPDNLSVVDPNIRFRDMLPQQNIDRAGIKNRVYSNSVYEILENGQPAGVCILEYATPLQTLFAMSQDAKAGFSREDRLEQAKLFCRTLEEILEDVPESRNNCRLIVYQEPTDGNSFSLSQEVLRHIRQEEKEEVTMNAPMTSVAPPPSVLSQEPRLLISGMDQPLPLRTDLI
Put plainly: Agonist activity at STING in MEF cells assessed as STING translocation by measuring aggregation of green fluorescence incubated for 1 hr by laser scanning confocal microscope analysis. It is filed as cell-based. To be noted: filed as agonist.

Series [6] deals with Stimulator of interferon genes protein (Homo sapiens) (UniProt Q86WV6). Put plainly: Agonist activity at STING in human THP-1 cells assessed as IRF3 phosphorylation at 20 uM measured for 4 hrs in presence of H-151 by Western blotting analysis. It is filed as cell-based.

The structures appear in SMILES notation. Active and inactive are the calls of the source. The calls are words filed in the database; no cut-off is given here.

Sequence of Stimulator of interferon genes protein (Homo sapiens) (Q86WV6 whole entry): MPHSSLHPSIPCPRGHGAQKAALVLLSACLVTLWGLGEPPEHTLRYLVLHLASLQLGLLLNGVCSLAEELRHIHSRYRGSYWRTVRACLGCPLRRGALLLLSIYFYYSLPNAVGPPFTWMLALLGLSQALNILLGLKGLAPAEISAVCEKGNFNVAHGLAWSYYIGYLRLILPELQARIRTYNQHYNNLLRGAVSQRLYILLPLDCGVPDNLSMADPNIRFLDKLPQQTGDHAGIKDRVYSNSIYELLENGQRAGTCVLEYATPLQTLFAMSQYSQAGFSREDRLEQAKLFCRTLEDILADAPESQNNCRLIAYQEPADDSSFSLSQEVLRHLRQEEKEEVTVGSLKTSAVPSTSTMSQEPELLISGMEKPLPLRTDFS

`CC(NCCC(c1ccccc1)c1ccccc1)c1ccccc1` (centres undefined) [FENDILINE]: the Activity result in the series with Human alphaherpesvirus 1 was “Dose-Dependent Effect”; in series [2], “Non-Toxic”; in [4], “Non-Toxic”. Besides, the outcome (with MC-38; in series [1]; in [3]; in series [5]) was Active. Moreover, the result (in the series on THP-1; in series [6]) was inactive.
